Measured values taken from ChEMBL document CHEMBL1156543, “Identification of N-(4-piperidinyl)-4-(2,6-dichlorobenzoylamino)-1H-pyrazole-3-carboxamide (AT7519), a novel cyclin dependent kinase inhibitor using fragment-based X-ray crystallography and structure based drug design” (J Med Chem, 2008).

Columns and labels:
[1] = molecular target: Cyclin-dependent kinase 2 (Homo sapiens, UniProt P24941)
Description: Inhibition of CDK2/Cyclin A by radiometric assay

in vivo = conditions: BALB/c, mouse, plasma, iv, 0.2 mg/kg
[2] = molecular target: Cyclin-dependent kinase 1/cyclin B1 (Homo sapiens, UniProt P06493)
Description: Inhibition of CDK1/Cyclin B by radiometric assay

HCT-116 [3] = assay: Antitumor activity against human HCT116 cells xenografted into SCID mouse at 9.1 mg/kg, ip bid for 10 days; format: functional; conditions: HCT-116, ip, 240 h, route intraperitoneal
HCT-116 [4] = assay: Antitumor activity against human HCT116 cells xenografted into SCID mouse at 18.2 mg/kg, ip bid for 10 days; format: functional; conditions: HCT-116, ip, 240 h, route intraperitoneal
HCT-116 [5] = assay: Antitumor activity against human HCT116 cells xenografted into SCID mouse at […], ip bid for 10 days; format: functional; conditions: HCT-116, ip, 240 h, dose 4.6 mg/kg, route intraperitoneal
Mus musculus = species on record: Mus musculus; conditions: in vivo, ip, 10 mg/kg
HCT-116 [6] = conditions: dose 9.1 mg/kg; route intraperitoneal
Description: Antitumor activity against human HCT116 cells xenografted into SCID mouse at 9.1 mg/kg, ip bid administered QDx10 schedule relative to control

in vitro = conditions: mouse, plasma
Description: Protein binding in mouse plasma at 1 ug/ml after 30 mins

HCT-116 [7] = assay: Antitumor activity against human HCT116 cells xenografted into BALB/c mouse at 10 mg/kg, ip bid administered QDx9 schedule relative to control; format: functional; conditions: route intraperitoneal

Sequence of Cyclin-dependent kinase 1/cyclin B1 (P06493 whole entry): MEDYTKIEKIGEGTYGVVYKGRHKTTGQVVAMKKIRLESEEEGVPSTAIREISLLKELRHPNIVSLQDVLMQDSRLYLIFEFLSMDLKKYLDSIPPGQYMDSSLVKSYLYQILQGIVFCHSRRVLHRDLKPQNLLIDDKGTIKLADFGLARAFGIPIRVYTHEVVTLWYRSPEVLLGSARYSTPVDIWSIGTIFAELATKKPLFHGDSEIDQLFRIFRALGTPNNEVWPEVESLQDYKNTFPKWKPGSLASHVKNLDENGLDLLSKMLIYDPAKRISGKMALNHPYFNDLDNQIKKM
Sequence of Cyclin-dependent kinase 1/cyclin B1 (P14635 whole entry, further chain): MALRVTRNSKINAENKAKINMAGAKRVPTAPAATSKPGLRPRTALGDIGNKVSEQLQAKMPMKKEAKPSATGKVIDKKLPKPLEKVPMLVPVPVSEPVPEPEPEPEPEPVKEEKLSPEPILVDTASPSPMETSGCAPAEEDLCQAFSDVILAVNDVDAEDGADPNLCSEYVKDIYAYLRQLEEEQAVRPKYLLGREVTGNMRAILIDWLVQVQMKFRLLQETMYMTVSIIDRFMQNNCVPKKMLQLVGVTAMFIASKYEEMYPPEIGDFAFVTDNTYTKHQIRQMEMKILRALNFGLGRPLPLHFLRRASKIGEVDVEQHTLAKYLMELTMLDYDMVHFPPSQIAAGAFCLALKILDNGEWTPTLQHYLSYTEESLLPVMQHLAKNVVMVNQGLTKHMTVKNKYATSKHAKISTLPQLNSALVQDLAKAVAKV

| Structure (SMILES) | IC50 [1] | clearance (in vivo) | IC50 [2] | other results |
| --- | --- | --- | --- | --- |
| O=C(CO)Nc1c[nH]nc1C(=O)Nc1ccc(F)cc1 | 730 nM |  |  |  |
| O=C(NC1CCNCC1)c1n[nH]cc1NC(=O)c1c(F)cc(F)cc1F | 750 nM | 71 mL/min/kg |  |  |
| Clc1cncc(Nc2ccccc2)n1 | 7000 nM |  |  |  |
| O=C(NC1CCCCC1)c1n[nH]cc1NC(=O)c1c(F)cccc1F |  | 65 mL/min/kg | 55 nM |  |
| O=C(N[C@H]1CC[C@H](O)CC1)c1n[nH]cc1NC(=O)c1c(F)cccc1F | 19 nM | 42 mL/min/kg | 45 nM |  |
| O=C(NC1CCNCC1)c1n[nH]cc1NC(=O)c1c(F)cccc1F [listing 1 of 2 here] |  |  |  | inhibition in vivo at 9.1 mg/kg (HCT-116 [3]): 46%; inhibition in vivo at 18.2 mg/kg (HCT-116 [4]): 86%; inhibition in vivo at […] (HCT-116 [5]): 22% |
| O=C(NC1CCNCC1)c1n[nH]cc1NC(=O)c1c(F)cccc1F [listing 2 of 2 here] |  | 43 mL/min/kg |  | AUC (Mus musculus): 3422 ng·h/g; T/C (HCT-116 [6]): 54%; fraction unbound at 0.5 h, 1 ug/ml (in vitro): 0.16 |
| c1ccc2[nH]c(-c3cc[nH]n3)nc2c1 | 25000 nM |  |  |  |
| COc1cccc(F)c1C(=O)Nc1c[nH]nc1C(=O)NC1CCNCC1 | 350 nM | 38 mL/min/kg |  | AUC (Mus musculus): 3325 ng·h/g; T/C (HCT-116 [7]): 62%; fraction unbound at 0.5 h, 1 ug/ml (in vitro): 0.25 |
| O=C(NC1CCNCC1)c1n[nH]cc1NC(=O)c1c(F)cccc1Cl | 110 nM | 56 mL/min/kg |  |  |
| Cl.O=C(N[C@H]1CCCNC1)c1n[nH]cc1NC(=O)c1c(F)cccc1F | 44 nM | 48 mL/min/kg | 38 nM |  |
| Nc1c[nH]nc1C(=O)Nc1ccc(F)cc1 | 85000 nM |  |  |  |
| N[C@H]1CC[C@H](NC(=O)c2n[nH]cc2NC(=O)c2c(F)cccc2F)CC1 | 38 nM | 63 mL/min/kg | 440 nM |  |
| O=C(Nc1ccccc1)c1n[nH]c2ccccc12 | 3000 nM |  |  |  |
| O=C(NCC1CC1)c1n[nH]cc1NC(=O)c1c(F)cccc1F |  | 66 mL/min/kg |  |  |
| O=C(Nc1ccc(F)cc1)c1n[nH]cc1NC(=O)c1c(F)cccc1F |  | 40 mL/min/kg | 10 nM |  |
